# In patent publication US20260232767A1, “INTERLEUKIN-23 RECEPTOR ANTAGONIST PEPTIDES FOR USE IN THE TREATMENT OF PSORIASIS” (Janssen Pharmaceutica NV, priority 2023, published 2026):
# Test system: subjects with moderate-to-severe plaque psoriasis
# Assay: Safety, adverse events, Example 2 through Week 56
# Assay type: in vivo, human
# Description: The LTE safety analysis was based on randomized participants in Example who entered the present long-term extension study and received at least one dose of study intervention (including a partial dose) during the study period.
# [1] = 100 mg BID, Week 16 through Week 56
# [2] = 100 mg BID, LTE Safety analysis set
structure (smiles),measurement,setting,value
"CC(=O)NCCCC[C@@H]1NC(=O)[C@H](Cc2c[nH]c3c(C)cccc23)NC(=O)[C@H]([C@@H](C)O)NC(=O)[C@H](CC(N)=O)NC(=O)[C@@H](NC(C)=O)C(C)(C)SSC(C)(C)[C@@H](C(=O)N[C@@H](Cc2ccc(OCCN)cc2)C(=O)N[C@@H](Cc2ccc3ccccc3c2)C(=O)NC2(C(=O)N[C@@H](CCC(=O)O)C(=O)N[C@@H](CC(N)=O)C(=O)N[C@@H](Cc3cccnc3)C(=O)N(C)CC(N)=O)CCOCC2)NC1=O [IL-23 receptor antagonist peptide, Ac-[Pen]*-N-T-[W(7-Me)]-[Lys(Ac)]-[Pen]*-Phe[4-(2-aminoethoxy)]-[2-Nal]-[THP]-E-N-[3-Pal]-Sarc-NH2 (*[Pen]-[Pen]* formdisulfidebond)]",Renal mass: number of subjects,"50 mg QD, through Week 56",0
same,"Respiratory, thoracic and mediastinal disorders: % of subjects","50 mg QD, through Week 56",(4.7%)
same,"Respiratory, thoracic and mediastinal disorders: number of subjects","50 mg QD, through Week 56",2
same,Retinal vein occlusion: number of subjects,"50 mg QD, through Week 56",0
same,Rhinorrhoea: number of subjects,"50 mg QD, through Week 56",0
same,Seasonal allergy: % of subjects,"50 mg QD, through Week 56",(2.3%)
same,Seasonal allergy: number of subjects,"50 mg QD, through Week 56",1
same,Skin and subcutaneous tissue disorders: % of subjects,"50 mg QD, through Week 56",(9.3%)
same,Skin and subcutaneous tissue disorders: number of subjects,"50 mg QD, through Week 56",4
same,Skin laceration: number of subjects,"50 mg QD, through Week 56",0
same,Skin papilloma: % of subjects,"50 mg QD, through Week 56",(2.3%)
same,Skin papilloma: number of subjects,"50 mg QD, through Week 56",1
same,Social circumstances: % of subjects,"50 mg QD, through Week 56",(2.3%)
same,Social circumstances: number of subjects,"50 mg QD, through Week 56",1
same,Steatohepatitis: number of subjects,"50 mg QD, through Week 56",0
same,Subjects with AE leading to discontinuation: Abdominal discomfort,"50 mg QD, through Week 56",0
same,Subjects with AE leading to discontinuation: Alanine aminotransferase increased,"50 mg QD, through Week 56",0
same,Subjects with AE leading to discontinuation: Aspartate aminotransferase increased,"50 mg QD, through Week 56",0
same,Subjects with AE leading to discontinuation: Asthenia,"50 mg QD, through Week 56",0
same,Subjects with AE leading to discontinuation: Chills,"50 mg QD, through Week 56",0
same,Subjects with AE leading to discontinuation: Ear and labyrinth disorders,"50 mg QD, through Week 56",0
same,Subjects with AE leading to discontinuation: Gamma-glutamyltransferase increased,"50 mg QD, through Week 56",0
same,Subjects with AE leading to discontinuation: General disorders and administration site conditions,"50 mg QD, through Week 56",0
same,Subjects with AE leading to discontinuation: Headache,"50 mg QD, through Week 56",0
same,Subjects with AE leading to discontinuation: Insomnia,"50 mg QD, through Week 56",0
same,Subjects with AE leading to discontinuation: Investigations,"50 mg QD, through Week 56",0
same,Subjects with AE leading to discontinuation: Nervous system disorders,"50 mg QD, through Week 56",0
same,Subjects with AE leading to discontinuation: Proctalgia,"50 mg QD, through Week 56",0
same,Subjects with AE leading to discontinuation: Psoriasis,"50 mg QD, through Week 56",0
same,Subjects with AE leading to discontinuation: Psychiatric disorders,"50 mg QD, through Week 56",0
same,Subjects with AE leading to discontinuation: Skin and subcutaneous tissue disorders,"50 mg QD, through Week 56",0
same,Subjects with AE leading to discontinuation: Suicide attempt,"50 mg QD, through Week 56",0
same,Subjects with AE leading to discontinuation: Transaminases increased,"50 mg QD, through Week 56",0
same,Subjects with AE leading to discontinuation: Vertigo,"50 mg QD, through Week 56",0
same,Subjects with AE leading to discontinuation: Vomiting,"50 mg QD, through Week 56",0
same,Subjects with AE leading to discontinuation: Weight increased,"50 mg QD, through Week 56",0
same,Subjects with COVID-19 associated AE: SARS-CoV-2 test positive,"50 mg QD, through Week 56",0
same,Subjects with treatment-emergent serious AE: COVID-19,"50 mg QD, through Week 56",0
same,Subjects with treatment-emergent serious AE: Cerebrovascular accident,"50 mg QD, through Week 56",0
same,Subjects with treatment-emergent serious AE: Diverticulitis,"50 mg QD, through Week 56",0
same,"Subjects with treatment-emergent serious AE: Injury, poisoning and procedural complications","50 mg QD, through Week 56",0
same,Subjects with treatment-emergent serious AE: Intervertebral disc protrusion,"50 mg QD, through Week 56",0
same,Subjects with treatment-emergent serious AE: Ligament injury,"50 mg QD, through Week 56",0
same,"Subjects with treatment-emergent serious AE: Neoplasms benign, malignant and unspecified (incl cysts and polyps)","50 mg QD, through Week 56",0
same,Subjects with treatment-emergent serious AE: Nervous system disorders,"50 mg QD, through Week 56",0
same,Subjects with treatment-emergent serious AE: Psychiatric disorders,"50 mg QD, through Week 56",0
same,"Subjects with treatment-emergent serious AE: Respiratory, thoracic and mediastinal disorders","50 mg QD, through Week 56",0
same,Subjects with treatment-emergent serious AE: Suicide attempt,"50 mg QD, through Week 56",0
same,Subjects with treatment-emergent serious AE: Tonsillar hypertrophy,"50 mg QD, through Week 56",0
same,Subjects with treatment-emergent serious AE: Uterine leiomyoma,"50 mg QD, through Week 56",0
same,Subjects with treatment-emergent serious AE: Ventricular dysfunction,"50 mg QD, through Week 56",0
same,Suicide attempt: number of subjects,"50 mg QD, through Week 56",0
same,Sunburn: number of subjects,"50 mg QD, through Week 56",0
same,Thrombocytopenia: number of subjects,"50 mg QD, through Week 56",0
same,Thrombocytosis: number of subjects,"50 mg QD, through Week 56",0
same,Tonsillar hypertrophy: number of subjects,"50 mg QD, through Week 56",0
same,Tooth fracture: number of subjects,"50 mg QD, through Week 56",0
same,Type 2 diabetes mellitus: number of subjects,"50 mg QD, through Week 56",0
same,Urinary tract disorder: number of subjects,"50 mg QD, through Week 56",0
same,Uterine leiomyoma: number of subjects,"50 mg QD, through Week 56",0
same,Vascular disorders: % of subjects,"50 mg QD, through Week 56",(2.3%)
same,Vascular disorders: number of subjects,"50 mg QD, through Week 56",1
same,Ventricular dysfunction: number of subjects,"50 mg QD, through Week 56",0
same,Vertigo: number of subjects,"50 mg QD, through Week 56",0
same,Vitamin D deficiency: number of subjects,"50 mg QD, through Week 56",0
same,Number of subjects with treatment-emergent AE: Cholelithiasis,[1],0
same,Number of subjects with treatment-emergent AE: Ear and labyrinth disorders,[1],0
same,Number of subjects with treatment-emergent AE: Endocrine disorders,[1],0
same,Number of subjects with treatment-emergent AE: Eye disorders,[1],0
same,Number of subjects with treatment-emergent AE: Eyelid skin dryness,[1],0
same,Number of subjects with treatment-emergent AE: Goiter,[1],0
same,Number of subjects with treatment-emergent AE: Hepatobiliary disorders,[1],0
same,Number of subjects with treatment-emergent AE: Hypertransaminasemia,[1],0
same,Number of subjects with treatment-emergent AE: Immune system disorders,[1],1
same,Number of subjects with treatment-emergent AE: Insomnia,[1],0
same,Number of subjects with treatment-emergent AE: Ocular cyst,[1],0
same,Number of subjects with treatment-emergent AE: Psychiatric disorders,[1],0
same,Number of subjects with treatment-emergent AE: Retinal vein occlusion,[1],0
same,Number of subjects with treatment-emergent AE: Seasonal allergy,[1],1
same,Number of subjects with treatment-emergent AE: Vertigo,[1],0
same,Subjects with treatment-emergent AE: Immune system disorders (%),[1],(2.6%)
same,Subjects with treatment-emergent AE: Seasonal allergy (%),[1],(2.6%)
same,Subjects who discontinued study agent because of 1 or more adverse events,[2],0
same,Subjects with 1 or more Serious Infections and infestations,[2],0
same,Subjects with adverse event: Arthralgia,[2],0
same,Subjects with adverse event: Bronchitis,[2],0
same,Subjects with adverse event: Headache,[2],0
same,Subjects with adverse event: Meniscus injury,[2],0
same,Subjects with adverse event: Sinusitis,[2],0
same,Subjects with adverse event: Vomiting,[2],0
same,Subjects with serious adverse event: Cerebrovascular accident,[2],0
same,Subjects with serious adverse event: Coronary artery disease,[2],0
same,Subjects with serious adverse event: Diverticulitis,[2],0
same,Subjects with serious adverse event: Foot deformity,[2],0
same,Subjects with serious adverse event: Intervertebral disc protrusion,[2],0
same,Subjects with serious adverse event: Ligament injury,[2],0
same,Subjects with serious adverse event: Non-cardiac chest pain,[2],0
same,Subjects with serious adverse event: Tonsillar hypertrophy,[2],0
same,Subjects with serious adverse event: Ventricular dysfunction,[2],0
same,Subjects with 1 or more treatment-emergent adverse events leading to discontinuation of study agent,"100 mg BID, Week 16-56",0
same,Subjects with AE leading to discontinuation: Alanine aminotransferase increased,"100 mg BID, Week 16-56",0
same,Subjects with AE leading to discontinuation: Aspartate aminotransferase increased,"100 mg BID, Week 16-56",0
same,Subjects with AE leading to discontinuation: Asthenia,"100 mg BID, Week 16-56",0
same,Subjects with AE leading to discontinuation: Chills,"100 mg BID, Week 16-56",0
same,Subjects with AE leading to discontinuation: Ear and labyrinth disorders,"100 mg BID, Week 16-56",0
same,Subjects with AE leading to discontinuation: Gamma-glutamyltransferase increased,"100 mg BID, Week 16-56",0
same,Subjects with AE leading to discontinuation: Gastrointestinal disorders,"100 mg BID, Week 16-56",0
same,Subjects with AE leading to discontinuation: General disorders and administration site conditions,"100 mg BID, Week 16-56",0
same,Subjects with AE leading to discontinuation: Headache,"100 mg BID, Week 16-56",0
same,Subjects with AE leading to discontinuation: Insomnia,"100 mg BID, Week 16-56",0
same,Subjects with AE leading to discontinuation: Investigations,"100 mg BID, Week 16-56",0
same,Subjects with AE leading to discontinuation: Nervous system disorders,"100 mg BID, Week 16-56",0
same,Subjects with AE leading to discontinuation: Proctalgia,"100 mg BID, Week 16-56",0
same,Subjects with AE leading to discontinuation: Psoriasis,"100 mg BID, Week 16-56",0
same,Subjects with AE leading to discontinuation: Psychiatric disorders,"100 mg BID, Week 16-56",0
same,Subjects with AE leading to discontinuation: Skin and subcutaneous tissue disorders,"100 mg BID, Week 16-56",0
same,Subjects with AE leading to discontinuation: Vertigo,"100 mg BID, Week 16-56",0
same,Subjects with AE leading to discontinuation: Vomiting,"100 mg BID, Week 16-56",0
same,Subjects with treatment-emergent AE: Arthralgia,"100 mg BID, Week 16-56",0
same,Subjects with treatment-emergent AE: Bronchitis,"100 mg BID, Week 16-56",0
same,Subjects with treatment-emergent AE: Gastrointestinal disorders,"100 mg BID, Week 16-56",0
